Measured values as given in patent publication US20090258836A1, “EFFECTIVE DELIVERY OF CROSS-SPECIES A3 ADENOSINE-RECEPTOR ANTAGONISTS TO REDUCE INTRAOCULAR PRESSURE” (The Trustees of The University of Pennsylvania, priority 2006, published 2009).
Entries after “also recorded” stand apart in the source; their conditions may differ.

Legend:
[1] = tested on: mouse IOP; experiment: Mouse IOP after topical application, non-invasive pneumotonometry; format: in vivo, Black Swiss mice; settings: for Δ(IOP) Pneumotonometer: topical droplets 200 nM (1% DMSO), 30 min
Procedure: (§1) The test animals were black Swiss outbred mice of mixed sex, 7-9 weeks old and 25-30 g in weight, obtained from Taconic Inc. (Germantown, N.Y.), and maintained under 12:12-h light/dark illumination cycle and allowed unrestricted access to food and water. Mice were anesthetized with intraperitoneal ketamine ([…]) supplemented by topical proparacaine HCl 0.5% (Allergan, Bausch & Lomb) for the IOP measurements. IOP was measured invasively (SNMS) and non-invasively by pneumotonometry in separate animals.
By comparison, IOP was measured non-invasively by pneumotonometry (OBT) (Avila et al., supra, 2005). As previously described, the commercially available tip of the ocular blood tomography (OBT) pneumotonometer (Blood Flow Analyzer [BFA] probe tip; Paradigm Medical Industries Inc.) was fit to a custom-built mount. Air flow from a constant pressure source was passed through the mount to reach a diaphragm forming the end of the BFA tip. The flow of air displaces the diaphragm outward, permitting escape of the air through holes in the wall of the probe tip into the atmosphere. Pressure was monitored with a transducer connected through a T-connection to the base of the BFA tip. The probe assembly was advanced to the cornea with a three-axis micromanipulator. The probe tip was advanced sufficiently to make contact with the tear film, as was indicated by a shift in the baseline output reading. In a refined method, the tip was withdrawn until the […] was visually displaced from the tear film. The output was then adjusted to zero before advancing the tip again. Contact with the cornea depresses the diaphragm of the BFA tip, occluding access of the air flow to the escape holes and raising the pressure at the base of the tip.
This approach was simplified to expedite identification of the endpoint, and the probe was subsequently advanced in about 10 standardized steps of approximately […] at intervals of about 10 seconds to identify the inflection region (Wang et al., supra, 2006). […] The pneumotonometric estimates of IOP were previously found to agree with manometric measurements in cannulated preparations and with estimates obtained by the servo-null technique (Avila et al., supra, 2005). Having established the baseline value of IOP, the position along the axis of advance of the micromanipulator was noted, and the probe was retracted from contact with the cornea. Subsequent measurements of IOP at later time points were obtained by advancing the probe tip to the same position, with the placement of the mouse maintained stereotactically. The measurements were conducted at 10-min intervals to avoid potential artifacts associated with prolonged pressure on the cornea.
(§2) Ketamine HCl was purchased from Phoenix Pharmaceutical Inc. (St. Joseph, Mo.). Other drugs were obtained from Sigma Chemical (St. Louis, Mo.). Drugs were applied topically with an Eppendorf pipette. […] The final droplet solution contained the drugs at the stated concentrations together with <2% DMSO and 0.0005% benzalkonium chloride at an osmolality of 295-300 mOsm. DMSO was omitted, altogether, from droplets containing the hydrophilic compounds adenosine, carbachol and carboxyfluorescein.
(§3) Effects on invasively-measured IOP were measured 10 min after topical application because after this time, the continued presence of the micropipette can be associated with a downward drift of the IOP, even under control conditions. In contrast, smaller droplets ([…]) were applied to the eye more frequently (three times instead of once) with the non-invasive technique, in order to forestall drying of the eye associated with the airflow from the pneumotonometer. With the non-invasive protocol, the IOP was stable for 30 min under control conditions.
In Table 1, an endpoint of 10 minutes was used for the invasive measurements in light of the above-discussed downward drift of the IOP, even under control conditions. […]

[2] = tested on: mouse IOP; experiment: Mouse IOP after topical application, invasive servo-null micropipette system (SNMS); format: in vivo, Black Swiss mice
Procedure: as §1
By the SNMS approach (Avila et al., supra, 2001), the exploring micropipette, of […] outer diameter, was filled with a highly conducting solution and advanced across the cornea into the anterior chamber. A refined technique by Wang et al., Invest. Opthalmol. Vis. Sci. (serial online) (Aug. 31, 2006) available at www.iovs.org/egi/letters/46/9/3274#422, enhanced stability and reduce the background noise of the records, permitting fabrication of micropipettes whose resistance is 0.1-0.3 MΩ, rather than the 0.25-0.4 MΩ used initially. The filling solution was reduced from 3M KCl to 2M NaCl, rather than 3 M KCl. The resistance of the filled micropipette was balanced in a bridge circuit, and the tip was then advanced across the cornea. Upon entering the anterior chamber of the eye, the IOP forces the much lower-conducting aqueous humor into the micropipette tip, displacing the original filling solution. The micropipette resistance was thereby increased, unbalancing the bridge circuit and triggering a bellows to provide a counter-pressure, restoring the position of the filling solution and returning the resistance to its initial value. Thus, the value of the counter-pressure equals the IOP. As in the past (Avila et al., supra, 2001), the stability of the records permitted continuous measurements for tens of minutes during the course of drug applications.
as §2, §3
In Table 1, an endpoint of 10 minutes was used for the invasive measurements in light of the above-discussed downward drift of the IOP, even under control conditions. Also the need for smaller, more frequent droplets are discussed above with regard to the non-invasive technique using the pneumotonometer. As above, with the non-invasive protocol, the IOP was stable for 30 minutes under control conditions.

[3] = tested on: HCE (human ciliary epithelial) cell line, NPE cells; experiment: Cell volume in isosmotic solution (isosmotic shrinkage), Coulter Counter; format: cell-based
Procedure: Cell Culture The HCE (human ciliary epithelial) cell line (Carre et al., supra, 1997) is an immortalized NPE cell line obtained from primary cultures of adult human epithelium. […] Eye Res. 57:3057-3063 (1993); Yantorno et al., Exp. Eye Res. 49:423-437 (1989)). […] Cells were passaged every 6-7 days and were studied 8-13 days after passage, after reaching confluence. An immortalized PE-cell line from a primary culture of bovine pigmented ciliary epithelium were also grown under matching conditions. Measurement of Cell Volume in Isosmotic Solution: The volume of PE and NPE cells was measured, since the movement of fluid underlies a change in PE and NPE cell volume, respectively. This is also thought to be the same as the movement of fluid which underlines the secretion of aqueous humor (FIG. 1). […] Parallel aliquots of cells were studied on the same day. One aliquot usually served as a control, and the others were exposed to different experimental conditions at the time of suspension. The same amount of solvent vehicle (dimethylformamide, DMSO or ethanol) was always added to the control and experimental aliquots. […] Cell volumes of isosmotic suspensions were measured with a Coulter Counter (model ZBI-Channelyzer II), using a 100 μm aperture (Civan et al., supra, 1994). As previously described (Wax et al., supra, 1993), the cell volume (vC) of the suspension was taken as the peak of the distribution function. Cell shrinkage was fit as a function of time (t) to a monoexpenential function: […]^0^)/τ] {1) where v∞ is the steady-state cell volume, v0 is the cell volume at the first point (t0) of the time course to be fit, and τ is the time constant of the shrinkage. For purposes of data reduction, the data were normalized to the first time point, taken to be 100% isotonic volume. Fits were obtained by nonlinear least-squares regression analysis, permitting both v∞ and τ to be variables. […] Med. Chem. 37:636-646 (1994; Jacobson et al., supra, 1995; Jacobson et al., FEBS Lett. 336:57-60 (1993)).

[4] = target: human A2A receptors (Homo sapiens, UniProt P29274); settings: literature; read-out: Ki for the binding to human A2A receptors; cited from earlier work
Sequence of human A2A receptors (P29274 whole entry): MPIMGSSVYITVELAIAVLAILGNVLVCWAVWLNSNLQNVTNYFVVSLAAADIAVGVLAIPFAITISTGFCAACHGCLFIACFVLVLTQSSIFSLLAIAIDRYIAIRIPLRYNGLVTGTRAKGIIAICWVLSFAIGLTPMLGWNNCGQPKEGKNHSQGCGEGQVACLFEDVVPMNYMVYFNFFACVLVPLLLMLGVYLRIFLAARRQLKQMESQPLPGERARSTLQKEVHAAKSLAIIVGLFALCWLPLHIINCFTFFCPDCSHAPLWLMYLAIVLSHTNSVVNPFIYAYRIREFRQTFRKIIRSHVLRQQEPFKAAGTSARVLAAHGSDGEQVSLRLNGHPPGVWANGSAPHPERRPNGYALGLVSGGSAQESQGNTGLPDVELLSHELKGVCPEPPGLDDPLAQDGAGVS

[5] = tested on: pupil size; experiment: Pupil diameter after topical carbachol with or without corneal impalement; format: in vivo, mouse
Procedure: as §1
To measure pupil diameter, the pupil and an adjacent ruler having 1-mm graticules were imaged with a digital camera. Care was taken to avoid applying mechanical stress, and consequently to avoid displacing the micropipette tip from its position in the anterior chamber. Lengths were measured by IMAGE J (National Institutes of Health) and the pupil diameters were calibrated to the ruler.
Pupillary diameter was measured before and 10 min after topical addition of […] containing 40 mM ([…]) of the miotic carbachol to both eyes of the mouse. One eye was not punctured; the other eye was impaled with the SNMS micropipette. Either the right or left eye of each mouse was chosen randomly for impalement. At so low a topical concentration and in the absence of a micropipette, exposure to carbachol for 10 min had no significant effect on pupillary size. The baseline diameter was 1.80±0.11, and was insignificantly changed by carbachol application, increasing by 0.12±0.17 mm (n=6, P>0.4).

[6] = tested on: mouse IOP; experiment: Mouse IOP monitored with SNMS, protocols of Yang et al. 2005; format: in vivo
Procedure: Pharmacol. 65:1675-1684 (2003)), is effective both in blocking adenosine-triggered shrinkage of cultured human NPE cells and in lowering IOP of mice (Yang et al., supra, 2005). MRS-1292 was tested on the mouse for two reasons. Transgenic mice provide a convenient opportunity for studying the molecular physiology and pharmacology in the living animal ([…] al., supra, 2003). Second, measurement of IOP permitted us to assess the effects of MRS-1292 on the target parameter. […] Therefore, to directly assess the effect of MRS-1292 in vivo in the mouse, IOP was monitored before and after drug application. IOP was monitored with the Servo-Null-Micropipette System (SNMS). The test protocols are described in detail by Yang et al. supra, 2005, herein incorporated by reference. […] In comparison, addition of the same volume of saline at the same osmolality produced no significant change in IOP (-0.3±1.2 mmHg, n=6, p>0.8) 14 min later. […] To estimate an approximate range, “penetrance” was defined by Yang et al. as the ratio of the published Ki value at receptors in vitro to the minimally effective droplet concentration, for a number of adenosine agonists and antagonists. Thus, penetrance ranges from 1:100 to 1:1000 for purinergic drugs that have been tested in the mouse, and it is not very different from the drug penetrance of 1:100 for agents applied topically to rabbits and primates. This rule of thumb also applies to acylguanidine blockers and bumetanide, whose topical effects have also been studied in the mouse eye. Thus, the approximately 1:1000 penetrance that Yang et al. reported in the 2003 citation for MRS 1292 in the present experiments is consistent with past studies

[7] = tested on: cultured human NPE cells; settings: cited from earlier work

CNC(=O)[C@H]1O[C@@H](n2cnc3c(NCc4cccc(I)c4)nc(Cl)nc32)[C@H](O)[C@@H]1O [Cl-IB-MECA]
effect on mouse IOP measured non-invasively (in words) ([1]; pneumotonometry, topical, MRS-3833 at 200 nM): produced no significant increase in IOP | Δ(IOP) Pneumotonometer [1]: +0.7 ± 1.4 mm Hg | increase in IOP over baseline ([2]; SNMS, after 10 min, adenosine 10 mM, Cl-IB-MECA 200 nM droplet): 10.0±2.9 mmHg | Δ(IOP) Servo-Null ([2]; topical droplet 200 nM (1% DMSO), endpoint 10 min): +10.0 ± 2.9 mm Hg | shrinkage of HCE cells ([3]; in the presence of gramicidin, concentration not given): produced shrinkage of HCE cells

CCOC(=O)c1c(CC)c(C(=O)SCC)c(CC)[n+](C)c1-c1ccccc1.[I-] [MRS-1649, 2,4-diethyl-1-methyl-3-(ethylsulfanylcarbonyl)-5-ethyloxycarbonyl-6-phenylpyridium iodide]
effect on IOP in the mouse (in words) ([2]; tested by the inventors, technique not given): found to lower IOP in the mouse

3-ethyl 5-benzyl-2-methyl-6-phenyl-4-styryl-1,4-(±)-dihydropyridine-3,5-dicarboxylate [MRS-1097]
Ki [4]: 4.77 µM

C[N+](C)(C)CCOC(N)=O [carbachol]
effect on pupil size ([5]; 4 mM droplet, with or without corneal impalement (n=2)): had no effect on pupil size | reduction of the pupil diameter ([5]; 40 mM droplet, 10 min, cornea impaled with micropipette): 38% | contraction of the pupil diameter ([5]; 40 mM droplet, 10 min, cornea impaled, baseline 2.00±0.15 mm): 0.76±0.09 mm | change (increase) of pupil diameter ([5]; 40 mM droplet, 10 min, eye not punctured, baseline 1.80±0.11): 0.12±0.17 mm

CCC(=O)O[C@@H]1[C@H](OC(=O)CC)[C@@H](C(=O)NC)O[C@H]1n1cnc2c(NCc3cccc(I)c3)nc(Cl)nc21 [MRS-3823]
Δ(IOP) Pneumotonometer [1]: +0.2 ± 0.8 mm Hg

CCNC(=O)[C@H]1O[C@@H](n2cnc3c(N)nc(NCCc4ccc(CCC(=O)O)cc4)nc32)[C@H](O)[C@@H]1O [CGS-21680]
effect of agonist on isosmotic volume of NPE cells ([3]; agonist 100 nM): exerted no effect; also recorded: no detectable effect | effect of agonist on isosmotic volume of NPE cells ([3]; agonist 3 μM): triggered isosmotic shrinkage; also recorded: did trigger isosmotic shrinkage

O=C1NCCC12O[C@@H](n1cnc3c(NCc4cccc(I)c4)ncnc31)[C@H](O)[C@@H]2O (stereo partly drawn) [MRS-1292]
time of maximum reduction in IOP, mean ([6]; 25 μM): 15 ± 1 min | maximum reduction in IOP ([6]; droplets containing 25 μM): 4.4±0.8 mm Hg | time constant (τ) of the adenosine-triggered shrinkage in the presence of MRS-1292 ([7]; 10 μM adenosine plus MRS-1292): 11.7 ± 2.6 min | Δv∞ steady-state shrinkage ([7]; 10 μM adenosine, 2 min pretreatment with MRS-1292, gramicidin, 60 min study): 1.9±0.2%

OC[C@H]1O[C@@H](n2cnc3c(NC4CCCC4)ncnc32)[C@H](O)[C@@H]1O [CPA, N^6-cyclopentyladenosine]
effect of agonist on isosmotic volume of NPE cells ([3]; 30 nM and 1 μM (data not shown, N=3)): no significant shrinkage | effect of agonist on isosmotic volume of NPE cells ([3]; agonist 100 nM): had little effect; also recorded: small slow effect of uncertain significance | effect of agonist on isosmotic volume of NPE cells ([3]; agonist 3 μM): none at all; also recorded: no significant shrinkage
